Data: ChEMBL document CHEMBL1138930, “Discovery of novel triazole-based opioid receptor antagonists” (J Med Chem, 2006)
pKi: −log10 of the molar value.

Columns and labels:
[1] = target: Kappa-type opioid receptor (Rattus norvegicus) (UniProt P34975); assay: Inhibition of (-)-[9-3H]bremazocine binding to kappa opioid receptor at 10 uM
[2] = target: Delta-type opioid receptor (Mus musculus) (UniProt P32300); assay: Inhibition of (-)-[9-3H]bremazocine binding to delta opioid receptor at 10 uM
[3] = target: Kappa-type opioid receptor (Rattus norvegicus) (UniProt P34975); assay: Inhibition of (-)-[9-3H]bremazocine binding to kappa opioid receptor expressed in HEK293 cells
[4] = target: Mu-type opioid receptor (Mus musculus) (UniProt P42866); assay: Inhibition of (-)-[9-3H]bremazocine binding to mu opioid receptor at 10 uM
[5] = tested on: Delta and mu opioid receptors (Mus musculus); assay: Selectivity for delta opioid receptor over mu opioid receptor
[6] = tested on: Delta (Mus musculus) and kappa (Rattus norvegicus) opioid receptors; assay: Selectivity for delta opioid receptor over kappa opioid receptor
[7] = target: Delta-type opioid receptor (Mus musculus) (UniProt P32300); assay: Inhibition of (-)-[9-3H]bremazocine binding to delta opioid receptor expressed in HEK293 cells
[8] = target: Mu-type opioid receptor (Mus musculus) (UniProt P42866); assay: Inhibition of (-)-[9-3H]bremazocine binding to mu opioid receptor expressed in HEK293 cells

Sequence of Mu-type opioid receptor (Mus musculus) (P42866 whole entry, looked up): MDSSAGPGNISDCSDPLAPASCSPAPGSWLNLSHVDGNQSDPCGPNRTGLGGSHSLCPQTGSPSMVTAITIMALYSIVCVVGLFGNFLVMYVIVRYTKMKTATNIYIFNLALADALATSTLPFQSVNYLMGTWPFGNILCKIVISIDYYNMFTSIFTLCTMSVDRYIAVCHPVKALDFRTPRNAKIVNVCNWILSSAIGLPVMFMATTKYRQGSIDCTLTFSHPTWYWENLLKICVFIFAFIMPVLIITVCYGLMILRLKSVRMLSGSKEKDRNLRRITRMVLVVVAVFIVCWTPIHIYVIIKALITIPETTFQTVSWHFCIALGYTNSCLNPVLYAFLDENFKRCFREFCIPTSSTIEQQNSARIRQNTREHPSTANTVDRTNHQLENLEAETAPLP
Sequence of Kappa-type opioid receptor (Rattus norvegicus) (P34975 whole entry, looked up): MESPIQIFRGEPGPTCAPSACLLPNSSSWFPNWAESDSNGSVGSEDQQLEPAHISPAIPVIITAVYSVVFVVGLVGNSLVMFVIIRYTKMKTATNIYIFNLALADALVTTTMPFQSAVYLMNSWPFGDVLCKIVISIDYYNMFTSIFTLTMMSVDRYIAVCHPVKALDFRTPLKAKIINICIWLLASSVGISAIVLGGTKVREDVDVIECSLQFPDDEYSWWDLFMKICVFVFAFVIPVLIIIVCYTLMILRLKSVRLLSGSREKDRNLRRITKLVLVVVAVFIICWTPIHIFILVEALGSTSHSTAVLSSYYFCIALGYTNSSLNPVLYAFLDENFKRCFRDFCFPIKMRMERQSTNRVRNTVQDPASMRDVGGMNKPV
Sequence of Delta-type opioid receptor (Mus musculus) (P32300 whole entry, looked up): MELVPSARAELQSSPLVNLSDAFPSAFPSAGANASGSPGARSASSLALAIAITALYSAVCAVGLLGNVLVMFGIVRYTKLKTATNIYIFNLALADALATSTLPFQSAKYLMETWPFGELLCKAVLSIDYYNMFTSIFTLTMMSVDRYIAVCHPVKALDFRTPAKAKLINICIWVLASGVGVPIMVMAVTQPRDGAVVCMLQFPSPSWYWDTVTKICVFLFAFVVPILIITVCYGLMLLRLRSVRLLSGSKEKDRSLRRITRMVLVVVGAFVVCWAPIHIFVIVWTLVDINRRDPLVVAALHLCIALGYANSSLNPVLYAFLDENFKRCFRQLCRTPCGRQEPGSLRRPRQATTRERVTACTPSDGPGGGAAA

SMILES | inhibition [1] | inhibition [2] | pKi [3] | inhibition [4] | Selectivity ratio [5] | Selectivity ratio [6] | pKi [7] | pKi [8]
Oc1cccc(-n2cnnc2-c2cccc(-c3ccccc3)c2)c1 | 42% | 84% | < 5.00 | 84% | 7.14 | > 71.4 | – | –
CN(C)Cc1nnc(-c2cccc(C(C)(C)C)c2)n1-c1cccc(O)c1 | – | 65% | – | – | – | – | 5.59 | –
COc1cccc(-n2cnnc2-c2ccc(C(C)(C)C)cc2)c1 | 8% | – | < 5.00 | 9% | – | – | – | < 5.00
CN1CCN(c2nnc(-c3ccc(C(C)(C)C)cc3)n2-c2cccc(O)c2)CC1 | 12% | 18% | < 5.00 | 5% | – | – | < 5.00 | < 5.00
COc1cccc(-n2c(-c3ccc(C(C)(C)C)cc3)nnc2N(C)C)c1 | 3% | 28% | < 5.00 | 50% | – | – | < 5.00 | < 5.00
COc1cccc(-n2cnnc2-c2cccc(C(C)(C)C)c2)c1 | 5% | – | < 5.00 | – | – | – | – | –
CN(C)c1nnc(-c2ccc(C(C)(C)C)cc2)n1-c1cccc(O)c1 | 6% | 94% | < 5.00 | 32% | 80 | > 200 | 7.30 | 5.40
CN(C)c1nnc(-c2cccc(-c3ccccc3)c2)n1-c1cccc(O)c1 | 8% | 86% | < 5.00 | 23% | > 66.6 | > 66.6 | 6.82 | < 5.00
Oc1cccc(-n2cnnc2-c2ccc3ccccc3c2)c1 | 27% | 68% | < 5.00 | 48% | > 4.76 | > 4.76 | 5.68 | < 5.00
CN(C)CCc1nnc(-c2ccc(C(C)(C)C)cc2)n1-c1cccc(O)c1 | 19% | 90% | < 5.00 | 23% | – | – | 6.05 | < 5.00
CN(C)c1nnc(-c2ccc(C(C)(C)C)cc2)n1-c1ccc(O)cc1 | 21% | 27% | < 5.00 | 8% | – | – | < 5.00 | < 5.00
CN(C)c1nnc(-c2ccc3ccccc3c2)n1-c1cccc(O)c1 | 27% | 68% | < 5.00 | 48% | > 20.8 | > 20.8 | 6.32 | < 5.00
Oc1cccc(-n2cnnc2-c2ccc(-c3ccccc3)cc2)c1 | 46% | 75% | < 5.00 | 60% | – | – | 5.82 | < 5.00
CN(C)c1nnc(-c2ccc(-c3ccccc3)cc2)n1-c1cccc(O)c1 | 11% | 82% | < 5.00 | 15% | – | – | 6.89 | < 5.00
CC(C)(C)c1ccc(-c2nncn2-c2cccc(O)c2)cc1 | 16% | 54% | < 5.00 | 16% | – | – | 5.00 | < 5.00
CN(C)c1nnc(-c2cccc(C(C)(C)C)c2)n1-c1cccc(O)c1 | 6% | 76% | < 5.00 | 19% | – | – | 5.98 | < 5.00
CN(C)Cc1nnc(-c2ccc(C(C)(C)C)cc2)n1-c1cccc(O)c1 | 9% | – | < 5.00 | – | – | – | – | –
CC(C)(C)c1cccc(-c2nncn2-c2cccc(O)c2)c1 | 66% | 91% | 5.82 | 78% | 3.7 | 6.52 | 6.64 | 6.07
